Like-named read-outs stand apart in the source and are kept apart here.
Experiments:
SHP2 E76A protein = biological target: T1, SHP2 E76A protein (Homo sapiens, UniProt Q06124, E76A); experiment: SHP2 enzyme activity inhibition test (DiFMUP substrate, fluorescence); assay type: biochemical; settings: 50 ng SHP2 E76A, 20 min with compound, then 10 uM DiFMUP 20 min at room temperature
T1 sequence (Q06124 1-593 E76A): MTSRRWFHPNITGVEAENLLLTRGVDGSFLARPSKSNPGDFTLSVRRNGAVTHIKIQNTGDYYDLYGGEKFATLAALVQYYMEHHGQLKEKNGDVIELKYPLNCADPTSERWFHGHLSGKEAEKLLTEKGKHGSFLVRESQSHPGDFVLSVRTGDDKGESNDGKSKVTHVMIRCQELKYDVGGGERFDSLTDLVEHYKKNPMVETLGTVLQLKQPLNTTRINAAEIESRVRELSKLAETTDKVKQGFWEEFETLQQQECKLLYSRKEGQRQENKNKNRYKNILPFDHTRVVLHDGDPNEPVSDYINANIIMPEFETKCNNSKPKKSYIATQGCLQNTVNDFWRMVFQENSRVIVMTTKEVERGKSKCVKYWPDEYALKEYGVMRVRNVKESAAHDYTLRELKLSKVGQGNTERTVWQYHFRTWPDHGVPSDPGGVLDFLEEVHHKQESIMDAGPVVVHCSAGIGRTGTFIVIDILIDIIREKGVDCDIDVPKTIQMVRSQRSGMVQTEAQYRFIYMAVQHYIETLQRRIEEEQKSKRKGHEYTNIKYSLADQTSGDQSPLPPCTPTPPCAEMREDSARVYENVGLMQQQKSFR

MV4-11 cells = experiment: MV4-11 cell proliferation inhibition experiment (CellTiter-Glo); assay type: cell-based; settings: Homo sapiens, read-out: Cell proliferation inhibition activity
Description: The number of living cells in the culture was determined by quantitative determination of intracellular ATP using CellTiter-Glo® Luminescent Cell Viability Assay kit.
In the first step, MV4-11 cells were inoculated into 96-well plates with a density of 2500 cells per well and a volume of 100 μL per well. The plates were placed in 37° C., 5% carbon dioxide incubator overnight.
In the second step, cells were treated with compounds. The compounds to be tested were diluted 3 times, and 8 concentration gradients were set up. Each well was added with a certain volume of DMSO or the compound to be tested, and each concentration was tested in 2 replicates, and the final concentration of DMSO was 0.5%. The plates were placed in 37° C., 5% carbon dioxide incubator for 72 h.
In the third step, cell viability of the control groups and the treatment groups was determined using CellTiter-Glo® Luminescent Cell Viability Assay kit (Promega, G7570). Each well was added with 50 uL CellTiter-Glo. The culture was mixed well, and incubated at room temperature for 10 min. Signals were read using EnSpire (Perkin Elmer). Inhibition percentages (%) were calculated by the following formula:
Inhibition percentage (%)=(1−signal value of compound treatment group/signal value of DMSO treatment group)*100.

[1] = Pharmacokinetics experiment, intragastric single dose; assay type: in vivo; settings: mouse, plasma, male mice, oral administration dosage 5 mg/Kg; for half-life: read-out: Half-life T1/2 (converted); for Cmax: read-out: Maximum plasma concentration Cmax; for AUC: read-out: Plasma exposure AUC
Description: Pharmacokinetics of the compound of the disclosure was determined. The following method was used to determine the pharmacokinetic parameters of the compound of the disclosure. Healthy male adult mice were used in the study. Each group was intragastrically administered with a single dose of 5-100 mg/kg. Fasting lasted from 10 hours before administration to 4 hours after administration. Blood samples were collected at different time points after administration and the compound content in plasma was determined by LC-MS/MS. The relationship between plasma concentration and time was analyzed by professional software (winnonlin), and the pharmacokinetic parameters of the compounds were calculated. According to Table 3, the compounds of the disclosure have excellent pharmacokinetic properties.

[2] = MV4-11 cells, 72 h, CellTiter-Glo

Structure (SMILES)	IC50 (SHP2 E76A protein) [nM]	IC50 (MV4-11 cells; [2]) [nM]	further results
Nc1nccc(Sc2cnc(N3CCC4(CC3)Cc3cnccc3[C@H]4N)n3ccnc23)c1Cl [Compound 14, (S)-1′-(8-((2-amino-3-chloropyridin-4-yl)thio)imidazo[1,2-c]pyrimidin-5-yl)-5,7-dihydrospiro[cyclopenta[c]pyridine-6,4′-piperidine]-5-amine]	8	36	
Nc1nccc(Sc2cnc(N3CCC4(CC3)Cc3ccccc3[C@H]4N)n3cnnc23)c1Cl [Compound 2]	4	11	
N#Cc1cccc2c1CC1(CCN(c3ncc(Sc4ccnc(N)c4Cl)c4nncn34)CC1)[C@@H]2N [Compound 17, (S)-1-amino-1′-(8-((2-amino-3-chloropyridin-4-yl)thio)-[1,2,4]triazolo[4,3-c]pyrimidin-5-yl)-1,3-dihydrospiro[indene-2,4′-piperidine]-4-nitrile]	10	35	
Nc1nccc(Sc2cnc(N3CCC4(CC3)Cc3c(O)cccc3[C@H]4N)n3cnnc23)c1Cl [Compound 16, (S)-1-amino-1′-(8-((2-amino-3-chloropyridin-4-yl)thio)-[1,2,4]triazolo[4,3-c]pyrimidin-5-yl)-1,3-dihydrospiro[indene-2,4′-piperidin]-4-ol]	2		IC50 (MV4-11 cells; MV4-11, 72 h): 52 nM
N[C@@H]1c2cccnc2CC12CCN(c1ncc(Sc3ccnc4c3CCO4)c3nccn13)CC2 [Compound 1]	11		IC50 (MV4-11 cells; MV4-11, 72 h): 68 nM
Nc1nccc(Sc2cnc(N3CCC4(CC3)Cc3sc(Cl)nc3[C@H]4N)n3ccnc23)c1Cl [Compound 22]	9		
Nc1nccc(Sc2cnc(N3CCC4(CC3)Cc3ccncc3[C@H]4N)n3cnnc23)c1Cl [Compound 7, (5)-1′-(8-((2-amino-3-chloropyridin-4-yl)thio)-[1,2,4]triazolo[4,3-c]pyrimidin-5-yl)-5,7-dihydrospiro[cyclopenta[c]pyridine-6,4′-piperidine]-7-amine]	3	29	bioavailability [1]: 98%; half-life [1]: 3 h; Cmax [1]: 7.5 µM; AUC [1]: 43 µM·h
N[C@@H]1c2ncccc2CC12CCN(c1ncc(Sc3ccnc(Cl)c3Cl)c3nncn13)CC2 [Compound 9, (S)-1′-(8-(2,3-dichloropyridin-4-yl)thio-[1,2,4]-triazolo[4,3-c]pyrimidin-5-yl)-5,7-dihydrospiro[cyclopenta[b]pyridine-6,4′-piperidine]-7-amine]	7		IC50 (MV4-11 cells; MV4-11, 72 h): 60 nM
Nc1nccc(Sc2cnc(N3CCC4(CC3)Cc3ccccc3[C@H]4N)n3ccnc23)c1Cl [Compound 4, (S)-1′-(8-((2-amino-3-chloropyridin-4-yl)thio)imidazolo[1,2-c]pyrimidin-5-yl)-1,3-dihydrospirolindene-2,4′-piperidinel-1-amine]	7	7	bioavailability [1]: 34%; half-life [1]: 5.4 h; Cmax [1]: 7 µM; AUC [1]: 29 µM·h
Nc1nccc(Sc2cnc(N3CCC4(CC3)Cc3cnccc3[C@H]4N)n3cnnc23)c1Cl [Compound 15, (S)-1′-(8-((2-amino-3-chloropyridin-4-yl)thio)-[1,2,4]triazolo[4,3-c]pyrimidin-5-yl)-5,7-dihydrospiro[cyclopenta[c]pyridine-6,4′-piperidine]-5-amine]	3	94	
Nc1nccc(Sc2cnc(N3CCC4(CC3)Cc3ccncc3[C@H]4N)n3ccnc23)c1Cl [Compound 8, (S)-1′-(8-((2-amino-3-chloropyridin-4-yl)thio)imidazo[1,2-c]pyrimidin-5-yl)-5,7-dihydrospiro[cyclopenta[c]pyridine-6,4′-piperidine]-7-amine]	10	33	
COc1cccc2c1CC1(CCN(c3ncc(Sc4ccnc(N)c4Cl)c4nncn34)CC1)[C@@H]2N [Compound 19, (S)-1′-(8-((2-amino-3-chloropyridin-4-yl)thio)-[1,2,4]triazolo[4,3-c]pyrimidin-5-yl)-4-methoxy-1,3-dihydrospiro[indene-2,4′-piperidine]-1-amine]	7	1	
Nc1nccc(Sc2cnc(N3CCC4(CC3)Cc3nccnc3[C@H]4N)n3cnnc23)c1Cl [Compound 20, (S)-1′-(8-((2-amino-3-chloropyridin-4-yl)thio)-[1,2,4]triazolo[4,3-c]pyrimidin-5-yl)-5,7-dihydrospiro[cyclopenta[b]pyrazine-6,4′-piperidine]-5-amine]	6		
N[C@@H]1c2cccnc2CC12CCN(c1ncc(Sc3ccnc4[nH]ncc34)c3nccn13)CC2 [Compound 23]	9		
C[C@@H]1OCC2(CCN(c3ncc(Sc4ccnc(N)c4Cl)n4nccc34)CC2)[C@@H]1N [Positive control aa, reference compound]	26	423	
Nc1nccc(Sc2cnc(N3CCC4(CC3)Cc3cccnc3[C@H]4N)n3ccnc23)c1Cl [Compound 10, (S)-1′-(8-((2-amino-3-chloropyridin-4-yl)thio)imidazo[1,2-c]pyrimidin-5-yl)-5,7-dihydrospiro[cyclopenta[b]pyridine-6,4′-piperidine]-7-amine]	3	7	bioavailability [1]: 51%; half-life [1]: 3.8 h; Cmax [1]: 5 µM; AUC [1]: 48 µM·h
N[C@@H]1c2ncccc2CC12CCN(c1ncc(Sc3cccnc3C(F)(F)F)c3nncn13)CC2 [Compound 21, (S)-1′-(8-((2-(trifluoromethyl)pyridin-3-yl)thio)-[1,2,4]-triazolo[4,3-c]pyrimidin-5-yl)-5,7-dihydrospiro[cyclopenta[b]pyridine-6,4′-piperidine]-7-amine]	11		
Nc1nccc(Sc2cnc(N3CCC4(CC3)Cc3cccnc3[C@H]4N)n3cnnc23)c1Cl [Compound 11, (S)-1′-(8-((2-amino-3-chloropyridin-4-yl)thio)-[1,2,4]triazolo[4,3-c]pyrimidin-5-yl)-5,7-dihydrospiro[cyclopenta[b]pyridine-6,4′-piperidine]-7-amine]	1	30	
CNc1nccc(Sc2cnc(N3CCC4(CC3)Cc3ncccc3[C@H]4N)n3ccnc23)c1Cl [Compound 5, (S)-1′-(8-((3-chloro-2-(methylamino)pyridin-4-yl)thio)imidazo[1,2-c]pyrimidin-5-yl)-5,7-dihydrospiro[cyclopenta[b]pyridine-6,4′-piperidine]-5-amine]	5		IC50 (MV4-11 cells; MV4-11, 72 h): 6 nM
Nc1nccc(Sc2cnc(N3CCC4(CC3)Cc3ncccc3[C@H]4N)n3cnnc23)c1Cl [Compound 3, (S)-1′-(8-((2-amino-3-chloropyridin-4-yl)thio)-[1,2,4]triazolo[4,3-c]pyrimidin-5-yl)-5,7-dihydrospiro[cyclopenta[b]pyridine-6,4′-piperidine]-5-amine]	11	99	
Nc1nccc(Sc2cnc(N3CCC4(CC3)Cc3ccc(F)cc3[C@H]4N)n3ccnc23)c1Cl [Compound 13, (S)-1′-(8-((2-amino-3-chloropyridin-4-yl)thio)imidazo[1,2-c]pyrimidin-5-yl)-6-fluoro-1,3-dihydrospirolindene-2,4′-piperidinel-1-amine]	1	1	
Nc1nccc(Sc2cnc(N3CCC4(CC3)Cc3ccc(F)cc3[C@H]4N)n3cnnc23)c1Cl [Compound 12, (S)-1′-(8-((2-amino-3-chloropyridin-4-yl)thio)-[1,2,4]triazolo[4,3-c]pyrimidin-5-yl)-6-fluoro-1,3-dihydrospiro[indene-2,4′-piperidine]-1-amine]	2	30	

From US12441743B2, “Spiro aromatic ring compound and use thereof” (Etern Biopharma (Shanghai) Co., Ltd., priority 2018, dated 2025)
